Format in all cases: functional
The subject of assay [1] is Mycobacterium tuberculosis. In words: Antimycobacterial activity against isoniazid, rifampin and streptomycin-resistant Mycobacterium tuberculosis M3 after 24 hrs by microtiter alamar blue assay. The following applies: M3, 24 h. In general terms: The colour change of resazurin is a common sign of viable cells or microbes.
The test system of assay [2] is Mycobacterium tuberculosis. In words: Antimycobacterial activity against isoniazid, rifampin, ethambutol and streptomycin-resistant Mycobacterium tuberculosis M4 after 24 hrs by microtiter alamar blue assay. The following applies: M4, 24 h.
The subject of assay [3] is Mycobacterium tuberculosis. The experiment in a line: Antimycobacterial activity against isoniazid, rifampin and streptomycin-resistant Mycobacterium tuberculosis M5 after 24 hrs by microtiter alamar blue assay. Conditions: M5, 24 h.
The subject of assay [4] is Mycobacterium tuberculosis. In words: Antimycobacterial activity against isoniazid and rifampin-resistant Mycobacterium tuberculosis M6 after 24 hrs by microtiter alamar blue assay. The following applies: M6, 24 h.
For assay [5], the system named is Mycobacterium tuberculosis. The experiment in a line: Antimycobacterial activity against isoniazid, rifampin, ethambutol and streptomycin-resistant Mycobacterium tuberculosis M8 after 24 hrs by microtiter alamar blue assay. The following applies: M8, 24 h.
Assay [6] has as its system Mycobacterium tuberculosis. The experiment in a line: Antimycobacterial activity against isoniazid and rifampin-resistant Mycobacterium tuberculosis M11 after 24 hrs by microtiter alamar blue assay. The following applies: M11, 24 h.
The test system of assay [7] is Mycobacterium tuberculosis. The experiment in a line: Antimycobacterial activity against isoniazid, rifampin and ethambutol-resistant Mycobacterium tuberculosis M16 after 24 hrs by microtiter alamar blue assay. Conditions: M16, 24 h.
Assay [8] concerns Mycobacterium tuberculosis. The experiment in a line: Antimycobacterial activity against isoniazid, rifampin, ethambutol and streptomycin-resistant Mycobacterium tuberculosis M21 after 24 hrs by microtiter alamar blue assay. The following applies: M21, 24 h.
The subject of assay [9] is Mycobacterium tuberculosis. The experiment in a line: Antimycobacterial activity against isoniazid and rifampin -resistant Mycobacterium tuberculosis M22 after 24 hrs by microtiter alamar blue assay. The following applies: M22, 24 h.
The test system of assay [10] is Mycobacterium tuberculosis. In words: Antimycobacterial activity against isoniazid and rifampin -resistant Mycobacterium tuberculosis M27 after 24 hrs by microtiter alamar blue assay. Conditions: M27, 24 h.
In assay [11] the test system is Mycobacterium tuberculosis. The experiment in a line: Antimycobacterial activity against isoniazid, rifampin, ethambutol, streptomycin, ofloxacin and ciprofloxacin-resistant Mycobacterium tuberculosis M46 after 24 hrs by microtiter alamar blue assay. The following applies: M46, 24 h.
The test system of assay [12] is Mycobacterium tuberculosis. The experiment in a line: Antimycobacterial activity against isoniazid, rifampin, ethambutol, streptomycin, ofloxacin and ciprofloxacin-resistant Mycobacterium tuberculosis M48 after 24 hrs by microtiter alamar blue assay. Conditions: M48, 24 h.
In assay [13] the test system is Mycobacterium tuberculosis. The experiment in a line: Antimycobacterial activity against isoniazid, rifampin, ethambutol, streptomycin, ofloxacin and ciprofloxacin-resistant Mycobacterium tuberculosis M53 after 24 hrs by microtiter alamar blue assay. The following applies: M53, 24 h.

Molecules are shown by their SMILES. In brackets after ≈: the same amount, converted by molar mass.

From ChEMBL document CHEMBL1250481, “Isoxazole analogs of curcuminoids with highly potent multidrug-resistant antimycobacterial activity” (2010) come the findings set out here.

Usually MIC stands for the lowest concentration found to suppress growth. As to `CCCCCOc1ccc(/C=C/c2cc(/C=C/c3ccc(O)c(OC)c3)no2)cc1OC`, the MIC in assay [1] was 1.56 µg/mL (≈ 3.58 µM); in assay [2], 1.56 µg/mL (≈ 3.58 µM); in assay [3], 1.56 µg/mL (≈ 3.58 µM); in [4], 3.12 µg/mL (≈ 7.18 µM); in assay [5] it was 6.25 µg/mL (≈ 14.4 µM); in [6] it was 6.25 µg/mL (≈ 14.4 µM). Besides, the MIC amounted to 1.56 µg/mL (≈ 3.58 µM) in [7]; 6.25 µg/mL (≈ 14.4 µM) in assay [8]; 6.25 µg/mL (≈ 14.4 µM) in [9]; 1.56 µg/mL (≈ 3.58 µM) in assay [10]; 1.56 µg/mL (≈ 3.58 µM) in [11]; 3.12 µg/mL (≈ 7.18 µM) in [12]. The same molecule registered an MIC in assay [13] of 3.12 µg/mL (≈ 7.18 µM).
`COc1cc(/C=C/c2cc(/C=C/c3ccc(OC)c(OC)c3)no2)ccc1O`: the MIC was found to be 0.195 µg/mL (≈ 0.514 µM) in assay [1]; 1.56 µg/mL (≈ 4.11 µM) in assay [2]; 3.12 µg/mL (≈ 8.24 µM) in assay [3]; 0.39 µg/mL (≈ 1.03 µM) in assay [4]; 3.12 µg/mL (≈ 8.24 µM) in assay [5]; 3.12 µg/mL (≈ 8.24 µM) in assay [6]. For the same molecule, the MIC in [7] stood at 1.56 µg/mL (≈ 4.11 µM); in assay [8], 3.12 µg/mL (≈ 8.24 µM); in [9], 0.39 µg/mL (≈ 1.03 µM); in [10], 0.195 µg/mL (≈ 0.514 µM); in assay [11], 1.56 µg/mL (≈ 4.11 µM); in [12] it was 1.56 µg/mL (≈ 4.11 µM). In [13], it took 3.12 µg/mL (≈ 8.24 µM) to inhibit growth (MIC).
With `COc1cc(/C=C/c2cc(/C=C/c3ccc(OC)c(OC)c3)on2)ccc1O`, the MIC in assay [1] was determined as 0.78 µg/mL (≈ 2.06 µM); in [2], 6.25 µg/mL (≈ 16.5 µM); in assay [3], 12.5 µg/mL (≈ 32.9 µM); in assay [4], 1.56 µg/mL (≈ 4.11 µM); in [5], 12.5 µg/mL (≈ 32.9 µM); in assay [6] it was 12.5 µg/mL (≈ 32.9 µM). In addition, the MIC is 12.5 µg/mL (≈ 32.9 µM) in [7]; 12.5 µg/mL (≈ 32.9 µM) in assay [8]; 1.56 µg/mL (≈ 4.11 µM) in assay [9]; 0.78 µg/mL (≈ 2.06 µM) in [10]; 6.25 µg/mL (≈ 16.5 µM) in assay [11]; 12.5 µg/mL (≈ 32.9 µM) in assay [12]. The molecule also displayed an MIC in assay [13] of 12.5 µg/mL (≈ 32.9 µM).
As to `CCCCCOc1ccc(/C=C/c2cc(/C=C/c3ccc(O)c(OC)c3)on2)cc1OC`, the MIC in [1] was 0.39 µg/mL (≈ 0.895 µM); in [2] it was 1.56 µg/mL (≈ 3.58 µM); in [3], 1.56 µg/mL (≈ 3.58 µM); in [4] it was 0.78 µg/mL (≈ 1.79 µM); in [5], 3.12 µg/mL (≈ 7.18 µM); in assay [6], 3.12 µg/mL (≈ 7.18 µM). The MIC in [7] was 1.25 µg/mL (≈ 2.87 µM); in [8], 3.12 µg/mL (≈ 7.18 µM); in assay [9], 0.78 µg/mL (≈ 1.79 µM); in assay [10], 0.39 µg/mL (≈ 0.895 µM); in assay [11], 1.56 µg/mL (≈ 3.58 µM); in [12], 3.12 µg/mL (≈ 7.18 µM). The MIC in assay [13] stood at 3.12 µg/mL (≈ 7.18 µM).
